Data as given in patent publication US6562793B2, “Antiallergic agent” (We'll Corporation, priority 2000, dated 2003).

Tests used:
[1] = test system: mast cells from the rat abdominal cavity; test: Inhibition of histamine release from mast cells from a rat abdominal cavity; assay type: cell-based; details: Releaser: Compound 48/80
Description: A mast cell suspension is collected from a rat abdominal cavity. The suspension is treated with a sample adjusted to 1 to 0.01% (specimen) and to the mixture is added a histamine releasing agent. Inhibition of this release is observed to determine an activity value. […]
A solution of sample adjusted to a concentration of 0.01 to 0.003% in Tyrode's solution containing phosphatidyl-L-serine (PS) (1.75 mL) was preincubated at 37° C. for 5 min. To the solution was added 0.05 mL of the mast cell suspension from the rat abdominal cavity and the mixture was preincubated for further 15 min. […] A control was prepared as described above except that 1.75 mL of Tyrode's solution containing PS was used in place of 1.75 mL of the sample solution in Tyrode's solution containing PS and 0.2 mL of […] PS. After quenching the reaction by ice cooling, the mixture was centrifuged at 300×g and 4° C. for 10 min. The amounts of histamine were determined for the supernatant and the sediment, respectively, according to the method of Shore et al. to calculate an inhibition rate to histamine release.
Calculation equation for a histamine release rate [formula]
PS=Amount of histamine in the supernatant
PR=Amount of histamine remaining in the cells
Calculation equation for a release inhibition rate [formula]
S=Release rate of the sample
C=Release rate of the control […]

[2] = Solubility in water; assay type: physicochemical

solubility in water [2]: freely soluble
SMILES: O=c1c(O[C@@H]2OC(CO[C@@H]3OC(CO)[C@@H](O)C(O)C3O)[C@@H](O)C(O)C2O)c(-c2ccc(O)cc2)oc2cc(O)cc(O)c12 (stereo partly drawn) [kaempferol 3-0 [β-D-glucopyranosyl-(1→6)-β-D-glucopyranoside]]
Inhibition rate ([1]; concentration 3 × 10^−5 g/mL): 28.5%
Inhibition rate ([1]; concentration 9 × 10^−5 g/mL): 98.4%
